Data taken from article PMC8402032, “Unsymmetric Cisplatin-Based Pt(IV) Conjugates Containing a PARP-1 Inhibitor Pharmacophore Tested on Malignant Pleural Mesothelioma Cell Lines” (Molecules, 2021).

Test system: PARP-1
Assay: Western blot analysis of PARP-1 expression in MSTO-211H cells
Type: cell-based, human
Details: 72 h, equitoxic (IC50) concentrations, whole cell lysate
Method: It is necessary to verify how much the presence of the bulky Fmoc group might affect the recognition of the PARP catalytic domain. It is important to recall that all PARPis designed as analogues of nicotinamide must contain a primary or secondary amide. Indeed, this is the case of 6 [27]. The effects of compounds 6–9 on the expression of PARP-1 were evaluated by treating MSTO-211H cells for 72 h with equitoxic (at their IC50) concentrations of complexes, followed by Western blot analysis of whole cell lysate. […] First of all, the higher cellular uptake of 6 and 7 increases the intracellular concentration of the Pt metabolite and, in particular, of the ligands, potentially PARPis (synergistic cellular accumulation). […]
For protein analysis, cells were extracted with 1% NP-40 lysis buffer (50 mM Tris-HCl pH 8.5 containing 1% NP-40, 150 mM NaCl, 10 mM EDTA, 10 mM NaF, 10 mM Na4P2O7, and 0.4 mM Na3VO4) with freshly added protease inhibitors (10 μg mL^−1 leupeptin, 4 μg mL^−1 pepstatin, and 0.1 U mL^−1 aprotinin). […] Following SDS-PAGE, proteins were transferred to nitrocellulose, reacted with specific antibodies, and then detected with peroxidase-conjugate secondary antibodies and chemioluminescent ECL reagent. Digital images were taken with the Bio-Rad ChemiDocTM Touch Imaging System and quantified using Bio-Rad Image Lab 5.2.1. […]

Structure (SMILES): CC(=O)[O][Pt]([NH2])([NH2])([Cl])([Cl])[O]C(=O)CCNC(=O)c1cccc(NC(=O)OCC2c3ccccc3-c3ccccc32)c1 [Compound 6, (OC-6-44)-Acetato[3-(3-(fmoc-amino)-benzamido)-propanoato]-diammine-dichlorido-platinum(IV)]
- PARP-1 expression: lower expression of PARP-1 in the series
